Source: the NIST ThermoML archive (doi:10.1016/j.fluid.2013.09.051)

Experiment: xn = mol fraction of the nth substance listed
Conditions: Liquid, Time-dependent Raman spectra, x1 = 0

C [methane] + O
binary diffusion coefficient [m2/s]
Conditions | 273 K | 298 K | 313 K | 353 K | 393 K | 433 K | 473 K
5000 kPa | – | 1.61e-09 | – | 4.85e-09 | 8.59e-09 | – | –
10000 kPa | – | 1.63e-09 | – | 5e-09 | 8.7e-09 | – | –
20000 kPa | 7.02e-10 | 1.64e-09 | 2.39e-09 | 4.98e-09 | 8.68e-09 | 1.25e-08 | 1.71e-08
30000 kPa | – | 1.6e-09 | – | 4.79e-09 | 8.45e-09 | – | –
40000 kPa | – | 1.62e-09 | – | 4.8e-09 | 8.08e-09 | – | –
